Results as given in US10925890B2, “Use of dextran sulfate” (TX MEDIC AB, priority 2014, dated 2021).
“Also recorded” adds a separate entry of the source.

Key:
[1] = system: Rat Hind-Limb Ischemia Model; assay: In vivo assessment of limb function, rat hind-limb ischemia; conditions: for Incidence of limb function score 0 / Incidence of limb function score 1 / Incidence of limb function score 2 / Incidence of limb function score 3: Day 28
Experimental: (§1) The femoral artery and vein were ligated twice with 4-0 silk thread and transected between the ligatures. The wound was closed with 3-0 silk thread and the rats were allowed to recover.
(§2) Animals in group 4M and 5M were injected s.c. once on Day 8, see Table 12.
Semi-quantitative assessment of impaired use of the ischemic limb was performed once a week post-surgery using the scale presented in Table 7. Scoring was performed by personnel blinded to the treatment.

tMCAO rat-stroke model = assay: Body swing test, tMCAO rat; type: in vivo; conditions: all treated rats; day 7 up to day 28
Experimental: Transient middle cerebral artery occlusion was performed according to the method previously described in Stroke 29, 2162-2170 (1998). The right common carotid artery (CCA) was exposed through a midline neck incision and carefully dissected free from surrounding nerves and fascia—from its bifurcation to the base of the skull. The occipital artery branches of the external carotid artery (ECA) were then isolated, and these branches were dissected and coagulated. The ECA was dissected further distally and coagulated along with the terminal lingual and maxillary artery branches, which was then divided. The internal carotid artery (ICA) was isolated and carefully separated from the adjacent vagus nerve, and the pterygopalatine artery was ligated close to its origin with a 5-0 nylon suture (SMI, Belgium). […]
The rat was held approximately one inch from the base of its tail. […] A swing was recorded whenever the rat moves its head out of the vertical axis to either side. Before attempting another swing, the rat was returned to the vertical position for the next swing to be counted. Twenty total swings were counted. […] Body swing scores were expressed as a percentage of rightward over total swings. […]

[2] = system: rat model of myocardial infarction; assay: Infarct size (Masson's trichrome), rat myocardial infarction model; type: in vivo; conditions: 35 days after MI induction
Experimental: The myocardial infarction model in rat involved ligations of the left coronary artery permanently with an intramural stitch. The surgery caused obstruction of the blood flow and subsequently to severe ischemic damage and cardiac walls infarct.
On the day of surgery the animals were anesthetized with a combination of 90 mg/kg ketamine and 10 mg/kg xylazine. In order to induce MI, under anesthesia and analgesia, the rat chest was opened by left thoracotomy, the pericardium was removed and the proximal left coronary artery was permanently occluyded with an intramural stitch (Circulation 117, 1388-1396 (2008)). Two hours post surgery, each animal in all treated groups were injected s.c. with dextran sulfate or saline vehicle according to Table 11.
On day 36 after MI induction, the rats were sacrificed by CO2 inhalation and the hearts were harvested and fixed in 4% buffered Formalin solution. […]
For the purpose of MI size identification, Masson's Trichrome Staining was used. […] The sections were visualized in a computer-imaging system and infarct size was marked and calculated using the ImageJ program. Infarct size was expressed as percentage of infarct area (unstained) versus the total left ventricle area. For each animal, five serial sections including one containing the ligature were analyzed and the mean value of all sections for each heart was calculated. […]

[3] = system: Rat Hind-Limb Ischemia Model; assay: Angiography analysis, rat hind-limb ischemia; type: in vivo; conditions: 28 days after induction of hind-limb ischemia; p<0.01 and p<0.001
Experimental: The number of intersections between contrast-filled vessels was determined by image analysis 28 days after induction of hind-limb ischemia.

[4] = system: Rat Hind-Limb Ischemia Model; assay: Ischemic severity (necrosis grades), rat hind-limb ischemia; type: in vivo; conditions: all groups incl. vehicle; Day 7 up to Day 28
Experimental: as §1, §2

[5] = Body weight, tMCAO rat-stroke study; type: in vivo; conditions: 30 mg/kg 3 times a week or 15 mg/kg daily s.c., 28 days
Source text: In total 46 male SD rats having an average body weight of 342 g at study initiation (Day 0) were obtained from Harlan Laboratories, Israel. The minimal and maximal weight recorded in each group was within a range of ±20% of the group mean weight. Animals were handled according to guidelines of the National Institute of Health (NIH) and the Association for Assessment and Accreditation of Laboratory Animal Care (AAALAC). Animals were housed in polyethylene cages (5/cage) measuring 35×30×15 cm, with stainless steel top grill facilitating pelleted food and drinking water in plastic bottle; bedding: steam sterilized clean paddy husk (Harlan, Sani-chip cat #:2018SC+F) was used and bedding material was changed along with the cage at least twice a week. Animals were fed ad libitum a commercial rodent diet (Teklad Certified Global 18% Protein Diet cat #: 106S8216). Animals had free access to autoclaved and acidified drinking water (pH between 2.5 and 3.5) obtained from the municipality supply. Animals were housed under standard laboratory conditions, air-conditioned and filtered (HEPA F6/6) with adequate fresh air supply (Minimum 15 air changes/hour). Animals were kept in a climate-controlled environment. Temperatures range was 20-24° C. and RH range was 30-70% with 12 hours light and 12 hours dark cycle. […]

[6] = group 2M, 30 mg/kg s.c. 3 times a week
[7] = group 3M, 30 mg/kg (as printed in Table 12) s.c. 3 times a week
[8] = group 4M, 30 mg/kg s.c. administered once
[9] = group 5M, 3 mg/kg s.c. administered once

## Dextran sulfate
[1]; [6]
  Incidence of limb function score 0: 100%
  Incidence of limb function score 1: 0%
  Incidence of limb function score 2: 0%
  Incidence of limb function score 3: 0%
[1]; [7]
  Incidence of limb function score 0: 88%
  Incidence of limb function score 1: 12%
  Incidence of limb function score 2: 0%
  Incidence of limb function score 3: 0%
[1]; [8]
  Incidence of limb function score 0: 100%
  Incidence of limb function score 1: 0%
  Incidence of limb function score 2: 0%
  Incidence of limb function score 3: 0%
[1]; [9]
  Incidence of limb function score 0: 94%
  Incidence of limb function score 1: 6%
  Incidence of limb function score 2: 0%
  Incidence of limb function score 3: 0%
[1]; groups 2M, 3M, 4M and 5M vs 1M, Day 14 through Day 28
  Limb function score, treated groups vs control: statistically significant differences
tMCAO rat-stroke model
  Body swing test compared to vehicle control: statistically significant improvement
[2]; 15 mg/kg s.c. 3 times a week for 3 weeks
  Infarct size / infarct volume, treatment group 2M vs control group 1M: significant difference; also recorded: significantly decreased the infarct volume
[2]; all treatment groups (15 or 3 mg/kg s.c.)
  Average infarct size compared to untreated control group: smaller average infarct size
[3]
  Angiography: collaterals in affected limb vs vehicle control: significantly large numbers of collaterals
[4]
  Toe necrosis or foot amputation: no toe necrosis or foot amputation was found
[5]
  Body weight, differences among treatment groups: no statistically significant differences
